Results from patent US20060258697A1, “Method of augmenting the antitumor activity of anticancer agents” (priority 2003, published 2006).
Where two headings read alike, the source gives them in different places.

Assays:
nude mice = assay: Irinotecan lethality / survival with and without selenium compound; type: in vivo; details: for Survivor (%): without or with MSC 0.2 mg/mouse/d × 28 p.o.
Description: This example describes the evaluation of the effect of selenium containing compounds on the antitumor activity of irinotecan. […] Irinotecan was administered at 100 mg/kg/wk for 4 weeks (MTD) and 200 mg/kg/wk for 4 weeks (toxic) alone and in combination with 0.2 mg/mouse/d of MSC for 28 days to nude mice bearing HCT-8 colon xenografts. […] Thus, MSC potentiates the efficacy of irinotecan by increasing cure rate and by decreasing toxicity.
Nude mice (5 mice/group; experiment repeated ≧3 times) were treated with 0.2 mg/mouse/day of SLM (data replicated with MSC) for 21, 7, 3, 1, or 0 days prior to initiation of weekly IV irinotecan at 2 ×the MTD (at 200mg/kg/week×4). […] 3 days pre-treatment was associated with 80% survivorship while 0-1 days were associated with 60% (45% survivorship for irinotecan alone) (FIG. 13). Thus, the optimal duration of pre-treatment with SLM 0.2mg/mouse/day for maximum protection against irinotecan lethality was identified to be at least 1 week.

HT-29 colon xenografts = assay: Cure rate / antitumor activity in nude mice bearing HT-29 colon xenografts; type: in vivo; details: for HT-29 CR (%) / HT-29 PR (%): drug 100 mg/kg/week i.v. × 4, MSC 0.2 mg/day/mouse p.o. 42 days started 21 days before drug; for % CR of Surviving Animals HT-29: without or with MSC 0.2 mg/mouse/d
[1] = test system: A253 squamous cell carcinoma of the head and neck xenografts; assay: Cure rate / antitumor activity in nude mice bearing A253 head and neck xenografts; type: in vivo
Description: (§1) 5-Methylselenocysteine (MSC). Two schedules were evaluated: 1) in combination with irinotecan, MSC (0.2 mg/mouse/d×28) was administered orally for 28 days with the first dose administered daily for seven days prior to the weekly drug administration and 2) in combination with other drugs, MSC was administered orally (0.2 mg/mouse/d×14) daily for 14 days with the first dose administered daily for seven days prior to the single i.v. administration of taxol, CDDP, Dox, taxotere and cyclophosphamide.
(§2) Anticancer drug administration. The anticancer drugs administration schedule was as follows. • i. Irinotecan (CPT-11), weekly i.v. push for four (4) weeks, • ii. Taxol, single i.v. push, • iii. Cisplatin (CDDP), single i.v. push. • iv. Doxorubin (Dox), single i.v. push. • v. Cyclophosphamide, single i.v. push. • vi. Oxaliplatin, single i.v. push • vii. Taxotere, single i.v. push
(§3) Tumor Xenografts. […] The following tumor xenografts were established. • i. HCT-8: poorly-differentiated colon carcinoma, expressing wild type p53 • ii. HT-29: well-differentiated colon carcinoma expressing mutant p53 • iii. A253: well-differentiated squamous cell carcinoma of the head and neck (SCCHN) expressing no p53 • iv. FaDu: poorly-differentiated squamous cell carcinoma of the head and neck (SCCHN) expressing mutant p53
This example describes the comparative antitumor activity of MSC and SLM in combination with the maximum tolerated dose of irinotecan. […] As an illustration, MSC and SLM were used in combination with irinotecan. The results, shown in FIG. 3, represent a comparative evaluation of the effect of MSC and SLM (0.2 mg/mouse/d×28) on the antitumor activity of irinotecan (100 mg/kg/wk×4).
To determine whether therapeutic synergy achieved with irinotecan in xenografts is specific for MSC, the antitumor activity of irinotecan with and without two selenium-containing compounds, MSC and SLM were compared in xenografts bearing A253 (SCCHN) tumors for the […] (200 mg/kg/wk×4). The data compare the antitumor activity of MSC with SLM in combination with irinotecan (200 mg/kg/wk×4).
(§4) This example describes the modulation of the antitumor activity of anticancer drugs by MSC in mice bearing human tumors. […] To determine whether modulation of the therapeutic efficacy and cure of irinotecan by MSC is drug specific, the antitumor activity of drugs, representing different classes and mechanisms of action were evaluated alone and in combination with non-toxic doses and schedules of MSC (0.2 mg/mouse/d×14) in xenografts bearing human A253 and FaDu (SCCHN) tumors (FIG. 5). The data in FIG. 5 represent the use of the MTD doses of cisplatin (8 mg/kg×1), cyclophosphamide (100 mg/kg×1), taxol (35 mg/kg ×1.) and doxorubicin (10 mg/kg×1).

[2] = test system: FaDu squamous cell carcinoma of the head and neck xenografts; assay: Cure rate / antitumor activity in nude mice bearing FaDu head and neck xenografts; type: in vivo; details: for % CR of Surviving Animals FaDu: without or with MSC 0.2 mg/mouse/d
Description: as §1, §2
Tumor Xenografts. […] The following tumor xenografts were established. • i. HCT-8: poorly-differentiated colon carcinoma, expressing wild type p53 • ii. HT-29: well-differentiated colon carcinoma expressing mutant p53 • iii. A253: well-differentiated squamous cell carcinoma of the head and neck (SCCHN) expressing no p53 • iv. FaDu: poorly-differentiated squamous cell carcinoma of the head and neck (SCCHN) expressing mutant p53 […]
as §4
In mice, MSC was orally administered at 0.2 mg/mouse/d with the first daily dose administered seven days prior to single i.v. administration of drug and continuous for additional seven days for a total MSC treatment of 14 days.

HCT-8 colon xenografts = assay: Cure rate / antitumor activity in nude mice bearing HCT-8 colon xenografts; type: in vivo; details: for HCT-8 CR (%) / HCT-8 PR (%): drug 100 mg/kg/week i.v. × 4, MSC 0.2 mg/day/mouse p.o. 42 days started 21 days before drug; for % CR of Surviving Animals HCT-8: without or with MSC 0.2 mg/mouse/d
Description: as §1, §2, §3
This example describes the evaluation of the effect of selenium containing compounds on the antitumor activity of irinotecan. […] Irinotecan was administered at 100 mg/kg/wk for 4 weeks (MTD) and 200 mg/kg/wk for 4 weeks (toxic) alone and in combination with 0.2 mg/mouse/d of MSC for 28 days to nude mice bearing HCT-8 colon xenografts.
For these experiments, FUra was administered by i.v. push weekly times 4 and MSC by p.o. once a day for 6 weeks, the first dose being given 3 weeks before FUra administration. Irinotecan was administered by i.v. 100 mg/kg/week once a week for 4 weeks and MSC (0.2 mg/day), by p.o. daily for 28 days with the first dose started 7 days prior to irinotecan treatment.

Rats = details: oxaliplatin 10 mg/kg single i.v.; alone or with MSC […]
Description: In this example, the effect of selenium on the antitumor activity of oxaliplatin and doxorubicin was tested as follows. The effect of selenium was determined on the antitumor activity of oxaliplatin in rats bearing advanced ward colorectal carcinoma (3000 mg). Rats received MSC (0.75 mg/rat/d) or saline fourteen days prior to single i.v. injection of oxaliplatin of 5 and 10 mg/kg with continuous daily oral administration of MSC for additional seven days for a total of 21 days of MSC and oxaliplatin is administered on day 14 after saline and MSC treatment.

rat = assay: Reduction of doxorubicin toxicity by selenium compounds in rats; type: in vivo; details: 0.5 mg/day/rat daily for 14 days, started 7 days prior to doxorubicin; data not shown
in vivo [3] = details: nude, mouse
in vivo [4] = details: rat
normal nude mice = assay: Toxicity of selenium compounds alone in normal nude mice; type: in vivo; details: 0.2 mg/mouse/day for 28 days orally
Description: However, it was observed that when cure rates were evaluated, selenium increased the efficacy of only irinotecan and taxotere. While not intending to be bound by any particular theory, it is considered that potentiation of the efficacy of anticancer drugs is associated with increased antitumor activity and decreased toxicity.

[5] = Table 3 (A253), drug dose mg/kg and MSC mg/mouse/day in parentheses of Treatment
[6] = Table 3 first column pair (head printed 'FaUra'), drug dose mg/kg and MSC mg/mouse/day in parentheses of Treatment
[7] = Table 3 first column pair (head printed 'FaUra'), drug dose mg/kg and MSC mg/mouse/day in parentheses of Treatment, schedules per footnote

CCc1c2c(nc3ccc(OC(=O)N4CCC(N5CCCCC5)CC4)cc13)-c1cc3c(c(=O)n1C2)COC(=O)[C@]3(O)CC [Irinotecan, irinotecan]
maximum tolerated weekly dose (Mice; weekly i.v. for 4 weeks, nude mice): 100 mg/kg/wk
Survivor (%) (nude mice; irinotecan 100 mg/kg/wk × 4 i.v.): 100%
survivorship (nude mice; irinotecan 200 mg/kg/week × 4 alone (Example 8)): 45%
Survivor (%) (nude mice; irinotecan 200 mg/kg/wk × 4 i.v.): 50%
lethality (nude mice; irinotecan 300 mg/kg/wk × 4, alone or with MSC): 100%
Survivor (%) (nude mice; irinotecan 300 mg/kg/wk × 4 i.v.): 0%
HT-29 CR (%) (HT-29 colon xenografts): 0%
HT-29 PR (%) (HT-29 colon xenografts): 0%
% CR of Surviving Animals HT-29 (HT-29 colon xenografts; irinotecan 100 mg/kg/wk × 4): 0%
% CR of Surviving Animals HT-29 (HT-29 colon xenografts; irinotecan 200 mg/kg/wk × 4): 10%
CR (%) (complete tumor regression) [1, 5]: 10%
PR (%) (partial tumor regression, >50% tumor reduction) [1, 5]: 30%
% CR of Surviving Animals A253 ([1]; irinotecan 100 mg/kg/wk × 4, without or with MSC 0.2 mg/mouse/d): 20%
% CR of Surviving Animals A253 ([1]; irinotecan 200 mg/kg/wk × 4, without or with MSC or SLM 0.2 mg/mouse/d): 40%
PR (%) (partial tumor regression, >50% tumor reduction) [2, 6]: 50%
CR (%) (complete tumor regression) [2, 7]: 30%
% CR of Surviving Animals FaDu ([2]; irinotecan 100 mg/kg/wk × 4): 30%
% CR of Surviving Animals FaDu ([2]; irinotecan 200 mg/kg/wk × 4): 50%
HCT-8 CR (%) (HCT-8 colon xenografts): 20%
HCT-8 PR (%) (HCT-8 colon xenografts): 20%
% CR of Surviving Animals HCT-8 (HCT-8 colon xenografts; irinotecan 100 mg/kg/wk × 4): 20%
% CR of Surviving Animals HCT-8 (HCT-8 colon xenografts; irinotecan 200 mg/kg/wk × 4): 30%

O=C1[O][Pt]2([NH][C@@H]3CCCC[C@H]3[NH]2)[O]C1=O [Oxaliplatin, oxaliplatin]
toxicity (weight loss and diarrhea) (Rats): toxic
MTD (mg/kg) Mice (Mice; drug alone (−) or with MSC (+)): 7.5 mg/kg
CR (%) (complete tumor regression) ([1]; mouse, in vivo): 0%
PR (%) (partial tumor regression, >50% tumor reduction) ([1]; mouse, in vivo): 0%
CR (%) (complete tumor regression) ([2]; mouse, in vivo): 0%
PR (%) (partial tumor regression, >50% tumor reduction) ([2]; mouse, in vivo): 0%

O=c1[nH]cc(F)c(=O)[nH]1 [FUra]
HT-29 CR (%) (HT-29 colon xenografts): 0%
HT-29 PR (%) (HT-29 colon xenografts): 0%
CR (%) (complete tumor regression) [1, 5]: 0%
PR (%) (partial tumor regression, >50% tumor reduction) [1, 5]: 0%
CR (%) (complete tumor regression) [2, 7]: 0%
HCT-8 CR (%) (HCT-8 colon xenografts): 0%
HCT-8 PR (%) (HCT-8 colon xenografts): 0%

CCCCCOC(=O)Nc1nc(=O)n([C@@H]2O[C@H](C)[C@@H](O)[C@H]2O)cc1F [Xeloda]
CR (%) (complete tumor regression) [1, 5]: 0%
PR (%) (partial tumor regression, >50% tumor reduction) [1, 5]: 0%
CR (%) (complete tumor regression) [2, 7]: 0%

N.N.[Cl][Pt][Cl] [Cisplatin, cisplatin]
MTD (mg/kg) Mice (Mice; drug alone (−) or with MSC (+)): 8 mg/kg
CR (%) (complete tumor regression) [1, 5]: 0%
PR (%) (partial tumor regression, >50% tumor reduction) [1, 5]: 0%
PR (%) (partial tumor regression, >50% tumor reduction) [2, 6]: 0%
CR (%) (complete tumor regression) [2, 7]: 0%

CC[C@@]1(O)C(=O)OCc2c1cc1n(c2=O)Cc2cc3c(CN(C)C)c(O)ccc3nc2-1 [Topotecan, topotecan]
CR (%) (complete tumor regression) [1, 5]: 0%
PR (%) (partial tumor regression, >50% tumor reduction) [1, 5]: 0%
PR (%) (partial tumor regression, >50% tumor reduction) [2, 6]: 0%
CR (%) (complete tumor regression) [2, 7]: 0%

O=[Se](O)O [sodium selenite]
reducing toxicity of doxorubicin (rat): not sodium selenite

O=P1(N(CCCl)CCCl)NCCCO1 (centres unmarked) [Cyclophosphamide, cyclophosphamide]
MTD (in vivo [3]): 100 mg/kg
CR (%) (complete tumor regression) ([1]; mouse, in vivo): 0%
PR (%) (partial tumor regression, >50% tumor reduction) ([1]; mouse, in vivo): 0%
CR (%) (complete tumor regression) ([2]; mouse, in vivo): 0%
PR (%) (partial tumor regression, >50% tumor reduction) ([2]; mouse, in vivo): 0%

CC(=O)O[C@H]1C(=O)[C@@]2(C)[C@H]([C@H](OC(=O)c3ccccc3)[C@]3(O)C[C@H](OC(=O)[C@H](O)[C@@H](NC(=O)c4ccccc4)c4ccccc4)C(C)=C1C3(C)C)[C@]1(OC(C)=O)CO[C@@H]1C[C@@H]2O [Taxol]
MTD (in vivo [3]): 35 mg/kg
CR (%) (complete tumor regression) [1, 5]: 0%
PR (%) (partial tumor regression, >50% tumor reduction) [1, 5]: 0%
PR (%) (partial tumor regression, >50% tumor reduction) [2, 6]: 0%
CR (%) (complete tumor regression) [2, 7]: 0%
MTD (in vivo [4]): 50 mg/kg

COc1cccc2c1C(=O)c1c(O)c3c(c(O)c1C2=O)C[C@@](O)(C(=O)CO)C[C@@H]3O[C@H]1C[C@H](N)[C@H](O)[C@H](C)O1 [Doxorubicin, doxorubicin]
MTD (mg/kg) Mice (Mice; nude, mouse, in vivo): 10 mg/kg
CR (%) (complete tumor regression) [1, 5]: 0%
PR (%) (partial tumor regression, >50% tumor reduction) [1, 5]: 60%
PR (%) (partial tumor regression, >50% tumor reduction) [2, 6]: 0%
CR (%) (complete tumor regression) [2, 7]: 0%
MTD (in vivo [4]): 6 mg/kg

C[Se]C[C@H](N)C(=O)O [MSC, 5-methylselenocysteine]
toxicity of selenium compound alone (normal nude mice): not to be toxic
reducing toxicity of doxorubicin (rat): effective in reducing toxicity
lowest effective dose in attenuating irinotecan toxicity (nude mice; nude mice, p.o. daily): 0.01 mg/day
